The values that follow come from patent publication US20240252454A1, “COMPOSITION COMPRISING AN INHIBITOR OF MITOCHONDRIAL TRANSCRIPTION” (LEAD DISCOVERY CENTER GMBH, priority 2021, published 2024).

Structures are written as SMILES.

The assay concerns A2780. The assay can be described thus: CellTiter-GLO (CTG) assay, combinatorial matrix. It counts as cell-based.

As for `O=C(c1cc(Cc2n[nH]c(=O)c3ccccc23)ccc1F)N1CCN(C(=O)C2CC2)CC1` [Olaparib], the “combination of IMT and PARPi compared to treatment with just the PARPi alone” value (A2780, CTG matrix, 30 μM to 10 nM IMT (3S)-1-[(2R)-2-[4-(2-chloro-4-fluoro-phenyl)-2-oxo-chromen-7-yl]oxypropanoyl]piperidine-3-carboxylic acid + 30 μM to 40 nM of the labelled PARPi) is “advantage of the combination”. In addition, the activity at 0.04 µM (Homo sapiens, A2780, 72 hours, Olaparib 0.04 μM, IMT (3S)-1-[(2R)-2-[4-(2-chloro-4-fluoro-phenyl)-2-oxo-chromen-7-yl]oxypropanoyl]piperidine-3-carboxylic acid at the μM of c0, untreated control =100%, read-out: Measured residual activity (cellular ATP content)) amounted to 99%. For the same molecule, the activity at 0.1 µM (Homo sapiens, A2780, 72 hours, Olaparib 0.1 μM, IMT (3S)-1-[(2R)-2-[4-(2-chloro-4-fluoro-phenyl)-2-oxo-chromen-7-yl]oxypropanoyl]piperidine-3-carboxylic acid at the μM of c0, untreated control =100%, read-out: Measured residual activity (cellular ATP content)) was 85%. Also, the activity at 0.4 µM (Homo sapiens, A2780, 72 hours, Olaparib 0.4 μM, IMT (3S)-1-[(2R)-2-[4-(2-chloro-4-fluoro-phenyl)-2-oxo-chromen-7-yl]oxypropanoyl]piperidine-3-carboxylic acid at the μM of c0, untreated control =100%, read-out: Measured residual activity (cellular ATP content)) was determined as 46%. Further, the activity at 1.1 µM (Homo sapiens, A2780, 72 hours, Olaparib 1.1 μM, IMT (3S)-1-[(2R)-2-[4-(2-chloro-4-fluoro-phenyl)-2-oxo-chromen-7-yl]oxypropanoyl]piperidine-3-carboxylic acid at the μM of c0, untreated control =100%, read-out: Measured residual activity (cellular ATP content)) was 27%. Where the note is “Homo sapiens, A2780, 72 hours, Olaparib 3.3 μM, IMT (3S)-1-[(2R)-2-[4-(2-chloro-4-fluoro-phenyl)-2-oxo-chromen-7-yl]oxypropanoyl]piperidine-3-carboxylic acid at the μM of c0, untreated control =100%, read-out: Measured residual activity (cellular ATP content)”, the activity at […] was found to be 14%. Moreover, the activity at 10 µM (Homo sapiens, A2780, 72 hours, Olaparib 10 μM, IMT (3S)-1-[(2R)-2-[4-(2-chloro-4-fluoro-phenyl)-2-oxo-chromen-7-yl]oxypropanoyl]piperidine-3-carboxylic acid at the μM of c0, untreated control =100%, read-out: Measured residual activity (cellular ATP content)) was 1%. Moreover, the activity at 30 µM (Homo sapiens, A2780, 72 hours, Olaparib 30 μM, IMT (3S)-1-[(2R)-2-[4-(2-chloro-4-fluoro-phenyl)-2-oxo-chromen-7-yl]oxypropanoyl]piperidine-3-carboxylic acid at the μM of c0, untreated control =100%, read-out: Measured residual activity (cellular ATP content)) was 0%.
